Assay results as given in publication PMC4671257, “Plasmodium falciparum SERA5 plays a non-enzymatic role in the malarial asexual blood-stage lifecycle” (Molecular Microbiology, 2015).

Molecular target: SERA5 (rSERA5-C) (Plasmodium falciparum, UniProt Q9TY95, S596C)
Assay: fluorogenic peptide (Abz-LAQAVRSSSR-Dpa) cleavage assay with purified rSERA5-C, progress curves
Format: biochemical

## CC(C)C[C@H](NC(=O)[C@H]1O[C@@H]1C(=O)O)C(=O)NCCCCN=C(N)N [E64, trans-epoxysuccinyl-L-leucylamido(4-guanidino)butane]
  IC50: 2.9 ± 0.3 µM
